Results from doi:10.1101/2022.06.29.498063v1, “Molecular basis for the pheromone-mediated feeding preference of early-instar Mythimna separata larvae” (biorxiv, 2022).

Biological target: T1, MsGOBP2 (Mythimna separata, UniProt A0A5H2NB15)
T1 construct: recombinant, pColdII vector, E. coli TransB, Ni-NTA purified, expression tag removed with enterokinase
T1 sequence (A0A5H2NB15 22-162): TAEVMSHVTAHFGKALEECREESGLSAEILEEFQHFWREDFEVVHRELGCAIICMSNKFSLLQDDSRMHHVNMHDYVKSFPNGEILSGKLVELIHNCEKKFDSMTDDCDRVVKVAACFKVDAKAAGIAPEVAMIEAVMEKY
Experiment: direct fluorescence titration with the probe
Format: binding
Conditions: 2 μM protein; protein dialyzed in 10 mM PBS pH 7.4; excitation 337 nm

c1ccc(Nc2cccc3ccccc23)cc1 [1-NPN] was tested, and the K1-NPN was “yielding the dissociation constants between the two proteins and 1-NPN (K1-NPN)”.
